Measurements taken from ChEMBL document CHEMBL1201862, “PubChem BioAssay data set” (2004).
Each block holds one compound with its values, some of them ahead of it. Active and inactive are the calls of the source.

Legend:
[1] = target: T1, Short transient receptor potential channel 4 (Mus musculus, UniProt Q9QUQ5); assay: mouse TRPC4 channel inhibitors, dose response, cell-based, HEK293 TRPC4/mu-opioid, Fluo-4 calcium (AID 434942); format: functional;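 note: potency of inhibitors blocking the TRPC4 calcium response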
T1 sequence (Q9QUQ5 whole entry): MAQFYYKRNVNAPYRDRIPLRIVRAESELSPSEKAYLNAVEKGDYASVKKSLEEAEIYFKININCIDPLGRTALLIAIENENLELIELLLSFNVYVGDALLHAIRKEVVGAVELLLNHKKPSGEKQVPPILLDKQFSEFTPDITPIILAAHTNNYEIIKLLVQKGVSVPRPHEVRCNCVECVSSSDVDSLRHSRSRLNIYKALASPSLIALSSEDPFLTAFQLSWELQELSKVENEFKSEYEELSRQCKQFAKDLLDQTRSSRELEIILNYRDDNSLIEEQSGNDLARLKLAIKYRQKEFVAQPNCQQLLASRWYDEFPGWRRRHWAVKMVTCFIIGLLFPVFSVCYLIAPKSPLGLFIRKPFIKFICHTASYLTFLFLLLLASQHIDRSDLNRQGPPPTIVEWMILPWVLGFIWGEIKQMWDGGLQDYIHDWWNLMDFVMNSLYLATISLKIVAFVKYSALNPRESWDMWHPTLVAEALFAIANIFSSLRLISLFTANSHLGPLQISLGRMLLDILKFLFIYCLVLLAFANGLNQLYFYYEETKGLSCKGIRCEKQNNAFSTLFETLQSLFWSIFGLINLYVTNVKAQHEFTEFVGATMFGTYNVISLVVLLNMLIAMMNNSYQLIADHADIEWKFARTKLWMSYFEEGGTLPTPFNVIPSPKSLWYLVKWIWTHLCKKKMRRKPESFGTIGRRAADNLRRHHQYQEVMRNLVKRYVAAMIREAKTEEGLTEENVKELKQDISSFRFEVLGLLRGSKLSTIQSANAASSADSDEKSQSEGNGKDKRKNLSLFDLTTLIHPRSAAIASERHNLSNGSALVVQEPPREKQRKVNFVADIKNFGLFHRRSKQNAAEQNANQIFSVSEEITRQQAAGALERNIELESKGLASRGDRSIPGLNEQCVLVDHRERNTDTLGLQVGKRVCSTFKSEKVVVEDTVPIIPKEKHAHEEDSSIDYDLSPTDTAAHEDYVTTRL

[2] = target: 72 kDa type IV collagenase (Homo sapiens, UniProt P08253); assay: Dose Response validation of uHTS RPN11 inhibitor hits using a MMP-2 Fluorescence assay.; format: functional
72 kDa type IV collagenase, sequence (P08253 whole entry): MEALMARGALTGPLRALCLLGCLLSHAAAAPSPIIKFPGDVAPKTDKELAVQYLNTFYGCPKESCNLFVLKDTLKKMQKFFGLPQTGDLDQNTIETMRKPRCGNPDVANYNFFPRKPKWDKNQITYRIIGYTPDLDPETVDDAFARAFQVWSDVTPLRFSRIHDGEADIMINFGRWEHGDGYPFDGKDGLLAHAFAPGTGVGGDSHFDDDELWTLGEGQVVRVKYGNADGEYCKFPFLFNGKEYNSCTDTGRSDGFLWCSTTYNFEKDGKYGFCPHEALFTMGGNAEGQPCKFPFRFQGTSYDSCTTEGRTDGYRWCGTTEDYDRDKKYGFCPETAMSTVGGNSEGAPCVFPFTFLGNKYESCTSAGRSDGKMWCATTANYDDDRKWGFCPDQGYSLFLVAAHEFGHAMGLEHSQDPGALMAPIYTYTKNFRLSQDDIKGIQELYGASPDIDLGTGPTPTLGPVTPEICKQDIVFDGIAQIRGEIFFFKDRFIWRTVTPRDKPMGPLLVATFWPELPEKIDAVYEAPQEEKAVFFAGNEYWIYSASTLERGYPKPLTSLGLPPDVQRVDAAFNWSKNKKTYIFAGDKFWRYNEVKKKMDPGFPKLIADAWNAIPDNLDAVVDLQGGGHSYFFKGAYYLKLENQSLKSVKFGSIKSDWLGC

Prothrombin = Prothrombin (Bos taurus, UniProt P00735); assay: thrombin inhibition, dose response, biochemical, fluorescence polarization, uHTS hits (AID 602369); format: functional
[3] = target: 26S proteasome non-ATPase regulatory subunit 14 (Homo sapiens, UniProt O00487); assay: inhibition of proteasome subunit RPN11 – biochemical, fluorescence polarization, uHTS hits, confirmation (AID 602368); format: functional
26S proteasome non-ATPase regulatory subunit 14, sequence (O00487 whole entry): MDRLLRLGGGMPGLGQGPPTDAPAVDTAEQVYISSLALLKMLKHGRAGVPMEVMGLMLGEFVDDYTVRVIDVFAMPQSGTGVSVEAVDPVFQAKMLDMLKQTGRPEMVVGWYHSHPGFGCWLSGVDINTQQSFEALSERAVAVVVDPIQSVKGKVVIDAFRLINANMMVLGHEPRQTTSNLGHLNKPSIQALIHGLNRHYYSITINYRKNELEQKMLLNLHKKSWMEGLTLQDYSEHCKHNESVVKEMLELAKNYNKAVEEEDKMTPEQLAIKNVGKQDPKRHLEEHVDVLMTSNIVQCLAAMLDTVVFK

[4] = target: T2, High affinity choline transporter 1 (Homo sapiens, UniProt Q9GZV3); assay: CHT inhibitors, dose response, cell-based, 5-point CRC, membrane potential dye (AID 504840); format: functional
T2 sequence (Q9GZV3 whole entry): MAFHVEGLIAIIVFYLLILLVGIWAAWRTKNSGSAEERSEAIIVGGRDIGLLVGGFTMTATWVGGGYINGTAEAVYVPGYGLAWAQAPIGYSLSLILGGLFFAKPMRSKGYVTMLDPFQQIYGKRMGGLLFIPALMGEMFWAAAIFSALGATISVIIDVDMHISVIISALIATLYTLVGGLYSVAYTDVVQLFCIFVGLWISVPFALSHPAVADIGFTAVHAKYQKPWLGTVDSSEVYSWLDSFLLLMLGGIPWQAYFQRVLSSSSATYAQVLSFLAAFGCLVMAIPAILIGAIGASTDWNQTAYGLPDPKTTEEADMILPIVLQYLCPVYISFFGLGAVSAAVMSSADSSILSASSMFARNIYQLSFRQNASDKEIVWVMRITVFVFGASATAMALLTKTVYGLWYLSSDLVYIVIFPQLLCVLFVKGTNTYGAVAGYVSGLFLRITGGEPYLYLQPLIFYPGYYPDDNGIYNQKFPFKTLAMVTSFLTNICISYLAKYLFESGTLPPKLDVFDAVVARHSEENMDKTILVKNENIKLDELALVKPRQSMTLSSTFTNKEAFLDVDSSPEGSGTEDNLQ

HeLa = assay: HeLa cell cytotoxicity, dose response, cytotoxicity control for MITF activator project, CellTiter-Glo luminescence, cherry-pick samples (AID 540259); format: functional, cell-based; settings: Homo sapiens
[5] = target: FAD-linked sulfhydryl oxidase ALR (Homo sapiens, UniProt P55789); assay: inhibitors of human ALR sulfhydryl oxidase, dose response, biochemical, H2O2 detection, luminescence, cherry-pick (AID 493248)
FAD-linked sulfhydryl oxidase ALR, sequence (P55789 whole entry): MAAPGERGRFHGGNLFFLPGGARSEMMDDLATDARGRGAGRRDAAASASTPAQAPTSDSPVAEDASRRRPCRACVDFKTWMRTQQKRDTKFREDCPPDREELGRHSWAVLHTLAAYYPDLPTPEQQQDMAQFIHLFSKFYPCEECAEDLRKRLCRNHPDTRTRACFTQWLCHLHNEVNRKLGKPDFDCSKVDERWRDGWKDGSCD

Large T antigen = Large T antigen (Simian virus 40, UniProt P03070); format: functional, Betapolyomavirus macacae;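 note: Confirmatory-stage PubChem screen for compounds that inhibit SV40 T antigen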
Large T antigen, sequence (P03070 whole entry): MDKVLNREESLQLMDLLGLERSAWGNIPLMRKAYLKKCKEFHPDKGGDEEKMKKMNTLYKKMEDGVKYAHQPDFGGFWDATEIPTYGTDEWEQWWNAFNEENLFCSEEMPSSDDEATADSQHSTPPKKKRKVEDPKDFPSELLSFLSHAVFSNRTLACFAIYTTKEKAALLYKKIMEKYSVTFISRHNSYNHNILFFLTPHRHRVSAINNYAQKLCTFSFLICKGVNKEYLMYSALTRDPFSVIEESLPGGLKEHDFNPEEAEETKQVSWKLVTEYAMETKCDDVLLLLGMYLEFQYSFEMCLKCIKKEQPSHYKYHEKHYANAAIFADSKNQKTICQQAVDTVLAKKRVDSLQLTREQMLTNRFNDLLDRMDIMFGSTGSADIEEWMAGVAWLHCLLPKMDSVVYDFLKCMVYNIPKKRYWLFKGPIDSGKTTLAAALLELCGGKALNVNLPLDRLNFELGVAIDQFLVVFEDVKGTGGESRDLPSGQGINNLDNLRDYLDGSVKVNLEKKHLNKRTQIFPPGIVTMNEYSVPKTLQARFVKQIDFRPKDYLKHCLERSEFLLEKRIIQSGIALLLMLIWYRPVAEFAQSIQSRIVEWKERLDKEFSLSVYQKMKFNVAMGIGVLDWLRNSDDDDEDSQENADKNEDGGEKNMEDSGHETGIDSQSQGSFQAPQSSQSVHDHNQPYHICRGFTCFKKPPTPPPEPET

[6] = target: T3, Rac GTPase-activating protein 1 (Homo sapiens, UniProt Q9H0H5); assay: MgcRacGAP GTPase-activating activity inhibitors, confirmation, biochemical, ADP Hunter fluorescence, primary and confirmatory (AID 624330); format: functional
T3 sequence (Q9H0H5 whole entry): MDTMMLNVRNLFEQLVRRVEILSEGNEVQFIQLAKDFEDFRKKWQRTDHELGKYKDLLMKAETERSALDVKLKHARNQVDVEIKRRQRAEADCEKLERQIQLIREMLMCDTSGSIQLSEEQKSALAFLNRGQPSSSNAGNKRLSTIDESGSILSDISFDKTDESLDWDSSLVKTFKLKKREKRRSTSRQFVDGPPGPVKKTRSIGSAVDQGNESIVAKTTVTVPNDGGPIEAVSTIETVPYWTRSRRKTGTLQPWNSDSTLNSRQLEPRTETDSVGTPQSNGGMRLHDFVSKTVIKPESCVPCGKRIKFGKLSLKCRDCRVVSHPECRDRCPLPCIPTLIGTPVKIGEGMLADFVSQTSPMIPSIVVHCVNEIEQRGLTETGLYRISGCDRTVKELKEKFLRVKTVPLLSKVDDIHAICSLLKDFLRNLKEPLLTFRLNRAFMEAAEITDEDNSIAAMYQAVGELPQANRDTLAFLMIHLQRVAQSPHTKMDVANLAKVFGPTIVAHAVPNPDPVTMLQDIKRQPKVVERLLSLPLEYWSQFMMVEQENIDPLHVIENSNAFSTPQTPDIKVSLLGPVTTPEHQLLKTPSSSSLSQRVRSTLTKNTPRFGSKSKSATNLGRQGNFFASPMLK

[7] = target: Glucose-6-phosphate 1-dehydrogenase (Homo sapiens, UniProt P11413); assay: human G6PD enzyme inhibitors, dose response, selectivity assay for P. falciparum G6PD inhibitor project, biochemical, fluorescence (AID 504792); format: functional
Glucose-6-phosphate 1-dehydrogenase, sequence (P11413 whole entry): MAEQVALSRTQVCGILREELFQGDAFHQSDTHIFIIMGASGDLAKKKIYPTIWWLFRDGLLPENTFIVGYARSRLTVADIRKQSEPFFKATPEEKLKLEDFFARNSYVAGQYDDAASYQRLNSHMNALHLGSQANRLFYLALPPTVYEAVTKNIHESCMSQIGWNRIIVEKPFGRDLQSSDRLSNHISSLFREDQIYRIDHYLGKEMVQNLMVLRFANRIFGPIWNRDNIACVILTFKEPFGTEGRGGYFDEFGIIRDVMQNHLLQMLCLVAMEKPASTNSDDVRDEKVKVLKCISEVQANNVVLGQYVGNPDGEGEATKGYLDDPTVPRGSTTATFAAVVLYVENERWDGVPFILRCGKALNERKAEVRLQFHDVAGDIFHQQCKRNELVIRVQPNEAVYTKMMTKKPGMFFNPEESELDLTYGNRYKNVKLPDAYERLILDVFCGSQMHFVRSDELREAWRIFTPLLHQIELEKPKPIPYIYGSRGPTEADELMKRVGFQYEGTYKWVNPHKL

[8] = inhibitors of Vif binding to APOBEC3G peptide, primary screen, biochemical, TR-FRET, GST-Vif 1-94, biotin-A3G peptide, dose response retest (AID 1117319); format: functional;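 note: TR-FRET signal of purified GST-Vif binding a biotinylated A3G peptide; inhibitors lower the FRET signal by blocking Vif and A3G binding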

EC50 [1]: 2.11 µM (active)
SMILES: Cc1cccc(NC(=O)CSc2nnc(-c3cc(C)n(-c4ccccc4)c3C)o2)c1C

IC50 [2]: > 100 µM (inactive)
IC50 (Prothrombin): 35.9 µM (active)
IC50 [3]: 37.6 µM (active)
SMILES: CCc1ccc(NC(=O)CCc2nc3sc4c(c3c(=O)[nH]2)CCCC4)cc1

IC50 [4]: 12.9 µM (active)
SMILES: Cc1ccc(CSc2nnc(CCNC(=O)OC(C)(C)C)o2)cc1

SMILES: Cc1cccc(-c2nnc3sc(-c4ccccc4)nn23)c1
AC50 (HeLa): 189 µM (active)

AC50 [5]: 1.36 µM (active)
IC50 (Large T antigen): 10.1 µM (active)
SMILES: CC(=O)N1CCN(c2ccc(NCc3cccc4ccccc34)cc2)CC1

SMILES: COc1cc(C=O)ccc1OCc1cccc(Br)c1
AC50 (HeLa): 85.9 µM (active)

IC50 [6]: 19.7 µM (active)
IC50 [7]: > 80 µM (inactive)
SMILES: Cn1c(=O)[nH]c(=O)c2c1nc(S)n2CCCc1ccccc1

IC50 [8]: > 100 µM (active)
SMILES: CC(=O)Nc1ccc(NC(=O)c2sc3nc4c(c(-c5ccc(C)cc5)c3c2N)CCC4)cc1

AC50 [5]: 7.63 µM (active)
SMILES: Oc1ccc(Br)cc1CN1CCCCCCC1

IC50 [8]: > 100 µM (active)
SMILES: COc1ccc(C(C(C(=O)c2cccs2)N2CCOCC2)N2CCOCC2)cc1OC (stereo not given)

IC50 [8]: > 100 µM (active)
SMILES: c1coc(CNc2nc(-c3cccs3)cs2)c1

SMILES: Cc1cccnc1NC(=O)Nc1cccc(Cl)c1
AC50 (HeLa): > 350 µM (inactive)

EC50 [1]: 3.76 µM (active)
SMILES: N#CCCn1cc(CNCc2ccccc2)c(-c2cccc([N+](=O)[O-])c2)n1

SMILES: CCN(CC)C(=O)c1cc2sc3ccccc3c2s1
AC50 (HeLa): 46.9 µM (active)

AC50 [5]: 4.33 µM (active)
SMILES: COc1ccc(O)c(-c2cc(-c3ccccc3[N+](=O)[O-])[nH]n2)c1

IC50 [4]: 12.3 µM (active)
SMILES: COc1ccc(Cn2cnc3c([N+](=O)[O-])c(C)c(C)cc32)cc1
